In patent publication US20110251379A1, “COMPOUNDS USEFUL FOR TREATING NEURODEGENERATIVE DISORDERS” (Satori Pharmaceuticals, Inc., priority 2010, published 2011):

tested on: amyloid-beta (1-42) peptide; assay: ELISA assay of amyloid-beta (1-42) in conditioned media of 2B7 cells; assay type: cell-based; details: 5 h, Aβ-42, 2B7 cells, 5 hours; read-out: IC50 range
Protocol: Compounds of the present invention, and extracts comprising said compounds, may be assayed as inhibitors of amyloid-beta (1-42) peptide in vitro or in vivo. Such assay methods are described in detail in U.S. Pat. No. 6,649,196, the entirety of which is hereby incorporated herein by reference.
In certain embodiments, provided compounds of the present invention, and extracts comprising said compounds, were assayed as inhibitors of amyloid-beta (1-42) peptide in vitro using an ELISA assay.
Capture Plate Prep: • 6E10 was diluted to 5.0 ug/mL in 100 mM NaHCO3 pH 8.2 (10 ug aliquot per 2 mL buffer); • 100 uL capture antibody solution was added to wells of 96 well plate; • Incubated overnight at 4° C. sealed; • Aspirated off capture antibody; and • Blocked with 250 uL of Blocking Buffer for 2-4 hours at rt sealed.
Conditioned Media: • Cultured 2B7 cells in 96 well plate with 250 uL of media per well until confluent; • Prepared serial dilution of compounds in DMSO at 100× the final desired concentration; • Washed wells with 2B7 cells lx with 250 uL of media; • Diluted DMSO stocks 1:100 into media and mix; and • Added 250 μL of media containing compounds (1% DMSO) to wells with 2B7 cells for 5 hours at 37° C.
Elisa Sample Prep: • Diluted conditioned media 1:2 into blocking buffer; • NOTE: If assaying for A-Beta 1-40 or total A-Beta, then diluted above sample 1:10 with a 50/50 mixture of non-conditioned media containing 1% DMSO and blocking buffer.
Standard Curve Sample Prep: • Diluted appropriate A-Beta peptide stock (stored in 1% NH4OH) to 200 μg/mL in blocking buffer; • Prepared a 1:2 serial dilution from the 200 μg/mL sample (150 μL into 150 μL blocking buffer); and • Added equal volume of standard curve samples to non-conditioned media with 1% DMSO.
Overnight Sample Incubation: • Aspirated blocking buffer from blocked plate; • Added 100 μL of samples to wells of plate (samples will be 50% media with 1% DMSO and 50% blocking buffer; and • Incubated overnight at 4° C. sealed.
Addition of Detection Antibody: • Aspirated off samples, wash 2× with 250 μL blocking buffer; and • Added 100 μL detection antibody labeled with HRP at 0.25 ug/mL in blocking buffer for 4 hours at room temperature sealed.
Final Wash and Readout: • Aspirated wells, wash 5× with 250 μL of PBS-T (2 minutes each wash at 30 RPM); • Added 100 μL TMB for 20 minutes; • Added 100 μL of 1M H3PO4; and • Read at 450 nm.
Coating Buffer (100 mM NaHCO3 pH 8.2)
PBS-T (PBS with 0.05% Tween-20)
Blocking Buffer (1% BSA in PBS-T)

Question: With `COCCN[C@H]1CC[C@]23C[C@]24CC[C@]2(C)C5C(O[C@@H]([C@H](OC(C)=O)C(C)(C)O)C[C@H]5C)[C@H](O)[C@@]2(C)[C@@H]4CC[C@H]3C1(C)C` (stereo partly shown) as the compound, how does the IC50 read?
Answer: 1000 to 10000 nM

Question: Which IC50 does the source give for `COCCN1CCOC(O[C@H]2CC[C@]34C[C@]35CC[C@]3(C)C6C(O[C@@H]([C@H](OC(C)=O)C(C)(C)O)C[C@H]6C)[C@H](O)[C@@]3(C)[C@@H]5CC[C@H]4C2(C)C)C1` (stereo partly shown) here?
Answer: ≤ 1000 nM

Question: For `CC(=O)O[C@@H]([C@H]1C[C@@H](C)C2C(O1)[C@H](O)[C@@]1(C)[C@@H]3CC[C@H]4C(C)(C)[C@@H](OC5CN(C6CCCC6)CCO5)CC[C@@]45C[C@@]35CC[C@]21C)C(C)(C)O` (stereo partly shown), which IC50 is on record?
Answer: ≤ 1000 nM

Question: `CC(=O)O[C@@H]([C@H]1C[C@@H](C)C2C(O1)[C@H](O)[C@@]1(C)[C@@H]3CC[C@H]4C(C)(C)[C@@H](OC5CN(CCN6CCOCC6)CCO5)CC[C@@]45C[C@@]35CC[C@]21C)C(C)(C)O` (stereo partly shown) was tested. Which IC50 did it give?
Answer: ≤ 1000 nM

Question: For `CC(=O)O[C@@H]([C@H]1C[C@@H](C)C2C(O1)[C@H](O)[C@@]1(C)[C@@H]3CC[C@H]4C(C)(C)[C@@H](OC(=O)CN(C)C)CC[C@@]45C[C@@]35CC[C@]21C)C(C)(C)O` (stereo partly shown), which IC50 is on record?
Answer: ≤ 1000 nM

Question: With `CC(=O)O[C@@H]([C@H]1C[C@@H](C)C2C(O1)[C@H](O)[C@@]1(C)[C@@H]3CC[C@H]4C(C)(C)[C@@H](OC(=O)c5ccccn5)CC[C@@]45C[C@@]35CC[C@]21C)C(C)(C)O` (stereo partly shown) as the compound, how does the IC50 read?
Answer: ≤ 1000 nM

Question: How did the IC50 turn out when `CC(=O)O[C@@H]([C@H]1C[C@@H](C)[C@H]2[C@H](O1)[C@H](O)[C@@]1(C)[C@@H]3CC[C@H]4C(C)(C)[C@@H](O[C@H]5CN(CCN(C)C)CCO5)CC[C@@]45C[C@@]35CC[C@]21C)C(C)(C)O` was run?
Answer: ≤ 1000 nM

Question: `CC(=O)O[C@@H]([C@H]1C[C@@H](C)[C@H]2[C@H](O1)[C@H](O)[C@@]1(C)[C@@H]3CC[C@H]4C(C)(C)[C@@H](O[C@H]5CN(CCN6CCCC6)CCO5)CC[C@@]45C[C@@]35CC[C@]21C)C(C)(C)O` was tested. Which IC50 did it give?
Answer: ≤ 1000 nM

Question: With `CC(=O)O[C@@H]([C@H]1C[C@@H](C)[C@H]2[C@H](O1)[C@H](O)[C@@]1(C)[C@@H]3CC[C@H]4C(C)(C)[C@@H](O[C@H]5CN(C6CCC6)CCO5)CC[C@@]45C[C@@]35CC[C@]21C)C(C)(C)O` as the compound, how does the IC50 read?
Answer: ≤ 1000 nM

Question: How did the IC50 turn out when `CC(=O)O[C@@H]([C@H]1C[C@@H](C)[C@H]2[C@H](O1)[C@H](O)[C@@]1(C)[C@@H]3CC[C@H]4C(C)(C)[C@@H](O[C@H]5CN(CCO)CCO5)CC[C@@]45C[C@@]35CC[C@]21C)C(C)(C)O` was run?
Answer: ≤ 1000 nM

Question: How did the IC50 turn out when `CC(=O)O[C@@H]([C@H]1C[C@@H](C)[C@H]2[C@H](O1)[C@H](O)[C@@]1(C)[C@@H]3CC[C@H]4C(C)(C)[C@@H](O[C@H]5CN(CC(F)(F)F)CCO5)CC[C@@]45C[C@@]35CC[C@]21C)C(C)(C)O` was run?
Answer: ≤ 1000 nM

Question: How did the IC50 turn out when `CC(=O)O[C@@H]([C@H]1C[C@@H](C)[C@H]2[C@H](O1)/C(=N/O)[C@H]1C3CCC4C(C)(C)[C@@H](OC5OC[C@@H](O)[C@H](O)[C@H]5O)CC[C@@]45C[C@@]35CC[C@]21C)C(C)(C)O` (stereo partly shown) was run?
Answer: ≤ 1000 nM

Question: How did the IC50 turn out when `CC(=O)O[C@@H]([C@H]1C[C@@H](C)[C@H]2[C@H](O1)C1(SCCS1)[C@@]1(C)C3CCC4C(C)(C)[C@@H](O)CC[C@]4(C)C3=CC[C@]21C)C(C)(C)O` (stereo partly shown) was run?
Answer: 1000 to 10000 nM

Question: With `CC(=O)O[C@@H]([C@H]1C[C@@H](C)[C@H]2[C@H](O1)[C@H](O)[C@@]1(C)[C@@H]3CC[C@H]4C(C)(C)[C@@H](O[C@@H](CN(C)C)OCCN(C)C)CC[C@@]45C[C@@]35CC[C@]21C)C(C)(C)O` as the compound, how does the IC50 read?
Answer: 1000 to 10000 nM

Question: For `CC(=O)O[C@@H]([C@H]1C[C@@H](C)[C@H]2[C@H](O1)[C@H](O)[C@@]1(C)[C@@H]3CC[C@H]4C(C)(C)[C@@H](O[C@H]5CN(C6COC6)CCO5)CC[C@@]45C[C@@]35CC[C@]21C)C(C)(C)O`, which IC50 is on record?
Answer: ≤ 1000 nM

Question: With `CCN1CCO[C@@H](O[C@H]2CC[C@]34C[C@]35CC[C@]3(C)[C@@H]6[C@H](O[C@@H]([C@H](OC(C)=O)C(C)(C)O)C[C@H]6C)[C@H](O)[C@@]3(C)[C@@H]5CC[C@H]4C2(C)C)C1` as the compound, how does the IC50 read?
Answer: ≤ 1000 nM

Question: `CCCN1CCO[C@@H](O[C@H]2CC[C@]34C[C@]35CC[C@]3(C)[C@@H]6[C@H](O[C@@H]([C@H](OC(C)=O)C(C)(C)O)C[C@H]6C)[C@H](O)[C@@]3(C)[C@@H]5CC[C@H]4C2(C)C)C1` was tested. Which IC50 did it give?
Answer: 1000 to 10000 nM

Question: With `CC(=O)O[C@@H]([C@H]1C[C@@H](C)[C@H]2[C@H](O1)[C@H](O)[C@@]1(C)[C@@H]3CC[C@H]4C(C)(C)C(OC(=O)c5ccncc5)CC[C@@]45C[C@@]35CC[C@]21C)C(C)(C)O` (stereo partly shown) as the compound, how does the IC50 read?
Answer: ≤ 1000 nM

Question: `CC(=O)O[C@@H]([C@H]1C[C@@H](C)[C@H]2[C@H](O1)[C@H](O)[C@@]1(C)[C@@H]3CC[C@H]4C(C)(C)C(OC(=O)[C@@H]5CCCN5)CC[C@@]45C[C@@]35CC[C@]21C)C(C)(C)O` (stereo partly shown) was tested. Which IC50 did it give?
Answer: ≤ 1000 nM

Question: Which IC50 does the source give for `CC(=O)O[C@@H]([C@H]1C[C@@H](C)[C@H]2[C@H](O1)[C@H](O)[C@@]1(C)[C@@H]3CC[C@H]4C(C)(C)C(OC(=O)C5CCCO5)CC[C@@]45C[C@@]35CC[C@]21C)C(C)(C)O` (stereo partly shown) here?
Answer: ≤ 1000 nM

Question: How did the IC50 turn out when `CC(C)C(O)[C@H]1C[C@@H](C)[C@H]2[C@H](O1)[C@H](O)[C@@]1(C)[C@@H]3CC[C@H]4C(C)(C)[C@@H](O)CC[C@@]45C[C@@]35CC[C@]21C` (stereo partly shown) was run?
Answer: > 10000 nM

Question: With `C[C@@H]1C[C@H]([C@H](O)C(C)(C)O)O[C@H]2[C@H]1[C@@]1(C)CC[C@@]34C[C@@]35CC[C@H](O[C@H]3CN(CC(N)=O)CCO3)C(C)(C)[C@@H]5CC[C@H]4[C@]1(C)[C@H]2O` as the compound, how does the IC50 read?
Answer: > 10000 nM

Question: With `CC(=O)O[C@@H]([C@H]1C[C@@H](C)[C@H]2[C@H](O1)[C@H](O)[C@@]1(C)[C@@H]3CC[C@H]4C(C)(C)[C@@H](O[C@H]5CN(CCOCCOCCNC(=O)CCCC[C@@H]6SC[C@@H]7NC(=O)N[C@@H]76)CCO5)CC[C@@]45C[C@@]35CC[C@]21C)C(C)(C)O` as the compound, how does the IC50 read?
Answer: ≤ 1000 nM

Question: How did the IC50 turn out when `CC(=O)O[C@@H]([C@H]1C[C@@H](C)[C@H]2[C@H](O1)[C@H](O)[C@@]1(C)[C@@H]3CC[C@H]4C(C)(C)[C@@H](OS(C)(=O)=O)CC[C@@]45C[C@@]35CC[C@]21C)C(C)(C)O` was run?
Answer: > 10000 nM

Question: With `CC(=O)O[C@@H]([C@H]1C[C@@H](C)[C@H]2[C@H](O1)[C@H](O)[C@@]1(C)[C@@H]3CC[C@H]4C(C)(C)[C@@H](OC(=O)Cc5ccccn5)CC[C@@]45C[C@@]35CC[C@]21C)C(C)(C)O` as the compound, how does the IC50 read?
Answer: ≤ 1000 nM

Question: For `C[C@@H]1C[C@H](CO)O[C@H]2C1[C@@]1(C)CC[C@@]34C[C@@]35CC[C@H](O[C@@H]3OC[C@@H](O)[C@H](O)[C@H]3O)C(C)(C)[C@@H]5CC[C@H]4[C@]1(C)[C@H]2O` (stereo partly shown), which IC50 is on record?
Answer: > 10000 nM

Question: `CC(=O)O[C@@H]([C@H]1C[C@@H](C)[C@H]2[C@H](O1)[C@H](O)[C@@]1(C)[C@@H]3CC[C@H]4C(C)(C)[C@@H](O[C@H]5CN(S(C)(=O)=O)CCO5)CC[C@@]45C[C@@]35CC[C@]21C)C(C)(C)O` was tested. Which IC50 did it give?
Answer: ≤ 1000 nM

same assay, conditions: Aβ-42, 2.5 umol/L; read-out: % Inhibition (range)

Question: Which inhibition at 2.5 µM does the source give for `C[C@@H]1CC[C@@]2(NC1)OC1C[C@H]3C4CC=C5C[C@@H](O)CC[C@]5(C)C4CC[C@]3(C)C1[C@@H]2C` (stereo partly shown) here?
Answer: < 25%

same assay, conditions: Aβ-42, 10 umol/L; read-out: % Inhibition (range)

Question: `C[C@@H]1C(O)CO[C@@]2(O)C[C@H]3[C@@H]4CC=C5C[C@@H](O[Si](C)(C)C(C)(C)C)CC[C@]5(C)[C@H]4CC[C@]3(C)[C@@H]12` (stereo partly shown) was tested. Which inhibition at 10 µM did it give?
Answer: < 25%

same assay, conditions: Aβ-42, 20 umol/L; read-out: % Inhibition (range)

Question: Which inhibition at 20 µM does the source give for `CC(C)C(O)[C@H]1C[C@@H](C)[C@H]2[C@H](O1)[C@H](O)[C@@]1(C)[C@@H]3CC[C@H]4C(C)(C)[C@@H](O)CC[C@@]45C[C@@]35CC[C@]21C` (stereo partly shown) here?
Answer: < 25%

Question: `C[C@@H]1C[C@H]([C@H](O)C(C)(C)O)O[C@H]2[C@H]1[C@@]1(C)CC[C@@]34C[C@@]35CC[C@H](O[C@H]3CN(CC(N)=O)CCO3)C(C)(C)[C@@H]5CC[C@H]4[C@]1(C)[C@H]2O` was tested. Which inhibition at 20 µM did it give?
Answer: < 25%
